Data as given in patent US5006540A, “Substituted 3-aminosydnonimines, processes for their preparation and their use” (Cassella Aktiengesellschaft, priority 1988, dated 1991).
Where a name gives a salt, the structure may show the parent alone.

What follows are molecules tested on spiral strips of the arteria pulmonalis of the guinea pig (assay: Relaxing action on K+-depolarized, CaCl2-contracted spiral strips of guinea pig arteria pulmonalis (modified method of Godfraind and Kaba and of Schumann et al.)). Conditions: Cavia porcellus; depolarized with 40 mmol/l potassium in calcium-free Tyrode solution; contraction by 0.5 mmol/l CaCl2; cumulative addition; mean value of 4 to 6 strips of vessel; read-out: IC50: concentration of test substance which inhibits the contraction by 50%.
From the text: The pharmacological action of the compound of the formula I has been determined by a modified method of Godfraind and Kaba (Arch. Int. Pharmacodyn. Ther. 196, (Suppl) 35 to 49, 1972) and of Schumann et al. (Naunyn-Schmiedeberg's Arch. Pharmacol. 289, 409 to 418, 1975). In this method, spiral strips of the arteria pulmonalis of the guinea pig are depolarized with 40 mmol/l of potassium after equilibration in calcium-free Tyrode solution. Addition of 0.5 mmol/l of CaCl2 then induces a contraction. The relaxing action of the test substance is determined by cumulative addition of concentrations graduated in 1/2 log 10. The concentration of test substance which inhibits the contraction by 50% (=IC50, mol/l) is determined from the concentration/ effect curve (abscissa: -log mol/l of test substance, ordinate: % inhibition of the maximum contraction, mean value of 4 to 6 strips of vessel). The IC50 values thus obtained are stated in the following table.

SMILES | IC50 [nM]
N=c1c[n+](NC2CCCCC2)[n-]o1 [Example 4e, 3-Cyclohexylamino-sydnonimine hydrochloride] | 2000
CCN[n+]1cc(=N)o[n-]1 [Example 2, 3-Ethylamino-sydnonimine hydrochloride] | 2000

More lines, now with the values ahead:

IC50 [nM] | SMILES
2000 | N=c1c[n+](NCCO)[n-]o1 [Example 1a, 3-(2-Hydroxyethylamino)-sydnonimine hydrochloride]
1000 | N=c1c[n+](NC2CCCCC2O)[n-]o1 (centres unmarked) [Example 5b, 3-(2-Hydroxycyclohexyl-amino)-sydnonimine hydrochloride]
> 100000 | CCOC(=O)[N-]c1cn(N2CCOCC2)n[o+]1 [Molsidomine, N-ethoxycarbonyl-3-morpholino-sydnonimine, reference compound]
